Reference: patent publication US20150105252A1, “SUBSTITUTED PYRAZOLES AS HERBICIDES” (E I DU PONT DE NEMOURS AND COMPANY, priority 2013, published 2015)

Experiments:
morningglory [1] = experiment: Test C postemergence; assay type: in vivo, Ipomoea coccinea; conditions: for Morningglory plant response rating: scale 0 to 100
Procedure, shortened: (§1)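 Visual rating, 0–100 scale (0 no effect, 100 complete control), vs untreated controls after 13–15 d greenhouse. Pre: seeds in loam/sand, treated at sowing. Post: plants in peat-based mix, 1- to 4-leaf (2–18 cm). Solvent + surfactant formulation, non-phytotoxic.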

foxtail, giant = experiment: Test A preemergence; assay type: in vivo, Setaria faberii; conditions: 0 to 100 scale
Procedure, shortened: (§2)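 Growth medium: loam soil blended with sand. Preemergence treatment used a directed soil spray right after planting; postemergence treatment targeted seedlings at one to two leaves (2–10 cm height). Response was judged by eye relative to untreated plants about 10 days later on a 0–100 control scale.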

lambsquarters = experiment: Test C postemergence; assay type: in vivo, Chenopodium album; conditions: for Lambsquarters plant response rating: scale 0 to 100
Procedure, shortened: as §1

pigweed = experiment: Test C postemergence; assay type: in vivo, Amaranthus retroflexus; conditions: for Pigweed plant response rating: scale 0 to 100
Procedure, shortened: as §1

barnyardgrass [2] = experiment: Test C preemergence; assay type: in vivo, Echinochloa crus-galli
Procedure, shortened: as §1

morningglory [3] = experiment: Test A preemergence; assay type: in vivo, Ipomoea spp.; conditions: 0 to 100 scale
Procedure, shortened: as §2

barnyardgrass [4] = experiment: Test C postemergence; assay type: in vivo, Echinochloa crus-galli; conditions: for Barnyardgrass plant response rating: scale 0 to 100
Procedure, shortened: as §1

velvetleaf [5] = experiment: Test C postemergence; assay type: in vivo, Abutilon theophrasti
Procedure, shortened: as §1

corn [6] = experiment: Test A postemergence; assay type: in vivo, Zea mays
Procedure, shortened: as §2

oilseed rape = experiment: Test C postemergence; assay type: in vivo, Brassica napus; conditions: for Oilseed Rape plant response rating: scale 0 to 100
Procedure, shortened: as §1

barnyardgrass [7] = experiment: Test A postemergence; assay type: in vivo, Echinochloa crus-galli; conditions: Postemergence
Procedure, shortened: as §2

velvetleaf [8] = experiment: Test A postemergence; assay type: in vivo, Abutilon theophrasti
Procedure, shortened: as §2

corn [9] = experiment: Test A preemergence; assay type: in vivo, Zea mays; conditions: 0 to 100 scale
Procedure, shortened: as §2

oat, wild = experiment: Test C postemergence; assay type: in vivo, Avena fatua; conditions: for Oat, Wild plant response rating: scale 0 to 100
Procedure, shortened: as §1

chickweed = experiment: Test C postemergence; assay type: in vivo, Stellaria media; conditions: for Chickweed plant response rating: scale 0 to 100
Procedure, shortened: as §1

galium = experiment: Test C preemergence; assay type: in vivo, Galium aparine
Procedure, shortened: as §1

[10] = postemergence, 125 g ai/ha, scale 0 to 100, 0 no effect, 100 complete control
[11] = Preemergence, 500 g ai/ha, 0 no effect, 100 complete control
[12] = preemergence, 125 g ai/ha, visual injury, approx. 10 days
[13] = Preemergence, 16 g ai/ha, scale 0 to 100
[14] = preemergence, 31 g ai/ha, scale 0 to 100 (0 no effect, 100 complete control), 13 to 15 days
[15] = preemergence, 62 g ai/ha, 13 to 15 days, scale 0 to 100, 0 = no effect, 100 = complete control
[16] = preemergence, 125 g ai/ha, scale 0 to 100, 0 is no effect, 100 is complete control
[17] = Postemergence, 500 g ai/ha, visual rating after approx. 10 days, 0 to 100 scale (0 no effect, 100 complete control)
[18] = postemergence, 125 g ai/ha, about 10 days, visual rating on 0 to 100 scale (0 no effect, 100 complete control)

CCCNC(=O)c1cc(CC)n(Cc2ccnc(C(F)(F)F)c2)n1 [Compound 75]
Plant response rating (scale of 0 to 100), Morningglory (morningglory [1]; Postemergence, 16 g ai/ha): 25 | Morningglory plant response rating (morningglory [1]; Postemergence, 31 g ai/ha): 75 | Morningglory plant response rating (morningglory [1]; postemergence, 62 g ai/ha): 80 | Plant response rating, Morningglory (morningglory [1]; [10]): 98 | Foxtail, Giant plant response rating (foxtail, giant; [11]): 100 | Foxtail, Giant plant response rating (foxtail, giant; [12]): 100 | Plant response rating (scale of 0 to 100), Lambsquarters (lambsquarters; Postemergence, 16 g ai/ha): 70 | Lambsquarters plant response rating (lambsquarters; Postemergence, 31 g ai/ha): 70 | Lambsquarters plant response rating (lambsquarters; postemergence, 62 g ai/ha): 85 | Plant response rating, Lambsquarters (lambsquarters; [10]): 90 | Plant response rating (scale of 0 to 100), Pigweed (pigweed; Postemergence, 16 g ai/ha): 40 | Pigweed plant response rating (pigweed; Postemergence, 31 g ai/ha): 40 | Pigweed plant response rating (pigweed; postemergence, 62 g ai/ha): 60 | Plant response rating, Pigweed (pigweed; [10]): 80 | Plant response rating, Barnyardgrass (barnyardgrass [2]; [13]): 60 | Barnyardgrass plant response rating (barnyardgrass [2]; [14]): 100 | Plant response rating, Barnyardgrass (barnyardgrass [2]; [15]): 100 | Barnyardgrass plant response rating (barnyardgrass [2]; [16]): 100 | Morningglory plant response rating (morningglory [3]; [11]): 90 | Morningglory plant response rating (morningglory [3]; [12]): 90 | Plant response rating (scale of 0 to 100), Barnyardgrass (barnyardgrass [4]; Postemergence, 16 g ai/ha): 5 | Barnyardgrass plant response rating (barnyardgrass [4]; Postemergence, 31 g ai/ha): 10 | Barnyardgrass plant response rating (barnyardgrass [4]; postemergence, 62 g ai/ha): 10 | Plant response rating, Barnyardgrass (barnyardgrass [4]; [10]): 35 | Plant response rating (scale of 0 to 100), Velvetleaf (velvetleaf [5]; Postemergence, 16 g ai/ha): 25 | Velvetleaf plant response rating (velvetleaf [5]; postemergence, 62 g ai/ha, scale 0 to 100): 35 | Plant response rating, Velvetleaf (velvetleaf [5]; [10]): 40 | Corn plant response rating (corn [6]; [17]): 90 | Corn plant response rating (corn [6]; [18]): 80 | Plant response rating (scale of 0 to 100), Oilseed Rape (oilseed rape; Postemergence, 16 g ai/ha): 20 | Oilseed Rape plant response rating (oilseed rape; Postemergence, 31 g ai/ha): 50 | Oilseed Rape plant response rating (oilseed rape; postemergence, 62 g ai/ha): 50 | Plant response rating, Oilseed Rape (oilseed rape; [10]): 60 | Barnyardgrass plant response rating (barnyardgrass [7]; 125 g ai/ha, 0 to 100 scale, 0 no effect, 100 complete control): 90 | Barnyardgrass plant response rating (barnyardgrass [7]; 500 g ai/ha, visual rating after approx. 10 days, 0 to 100 scale (0 no effect, 100 complete control)): 90 | Velvetleaf plant response rating (velvetleaf [8]; [17]): 100 | Velvetleaf plant response rating (velvetleaf [8]; [18]): 90 | Corn plant response rating (corn [9]; [11]): 90 | Corn plant response rating (corn [9]; [12]): 80 | Plant response rating (scale of 0 to 100), Oat, Wild (oat, wild; Postemergence, 16 g ai/ha): 5 | Oat, Wild plant response rating (oat, wild; Postemergence, 31 g ai/ha): 5 | Oat, Wild plant response rating (oat, wild; postemergence, 62 g ai/ha): 5 | Plant response rating, Oat, Wild (oat, wild; [10]): 25 | Plant response rating (scale of 0 to 100), Chickweed (chickweed; Postemergence, 16 g ai/ha): 65 | Chickweed plant response rating (chickweed; Postemergence, 31 g ai/ha): 65 | Chickweed plant response rating (chickweed; postemergence, 62 g ai/ha): 70 | Plant response rating, Chickweed (chickweed; [10]): 85 | Plant response rating, Galium (galium; [13]): 90 | Galium plant response rating (galium; [14]): 100 | Plant response rating, Galium (galium; [15]): 100 | Galium plant response rating (galium; [16]): 100
